Tests used:
[1] = molecular target: T1, hTLR7 (human Toll-like receptor 7) (Homo sapiens, UniProt Q9NYK1); test: hTLR7 cell assay (HEK-Blue hTLR7 reporter cells); assay type: cell-based; settings: 24 hours, OD 650 nm
T1 construct: host or cells: HEK-Blue hTLR7 (HEK293-derived reporter cells)
T1 sequence (Q9NYK1 27-1049): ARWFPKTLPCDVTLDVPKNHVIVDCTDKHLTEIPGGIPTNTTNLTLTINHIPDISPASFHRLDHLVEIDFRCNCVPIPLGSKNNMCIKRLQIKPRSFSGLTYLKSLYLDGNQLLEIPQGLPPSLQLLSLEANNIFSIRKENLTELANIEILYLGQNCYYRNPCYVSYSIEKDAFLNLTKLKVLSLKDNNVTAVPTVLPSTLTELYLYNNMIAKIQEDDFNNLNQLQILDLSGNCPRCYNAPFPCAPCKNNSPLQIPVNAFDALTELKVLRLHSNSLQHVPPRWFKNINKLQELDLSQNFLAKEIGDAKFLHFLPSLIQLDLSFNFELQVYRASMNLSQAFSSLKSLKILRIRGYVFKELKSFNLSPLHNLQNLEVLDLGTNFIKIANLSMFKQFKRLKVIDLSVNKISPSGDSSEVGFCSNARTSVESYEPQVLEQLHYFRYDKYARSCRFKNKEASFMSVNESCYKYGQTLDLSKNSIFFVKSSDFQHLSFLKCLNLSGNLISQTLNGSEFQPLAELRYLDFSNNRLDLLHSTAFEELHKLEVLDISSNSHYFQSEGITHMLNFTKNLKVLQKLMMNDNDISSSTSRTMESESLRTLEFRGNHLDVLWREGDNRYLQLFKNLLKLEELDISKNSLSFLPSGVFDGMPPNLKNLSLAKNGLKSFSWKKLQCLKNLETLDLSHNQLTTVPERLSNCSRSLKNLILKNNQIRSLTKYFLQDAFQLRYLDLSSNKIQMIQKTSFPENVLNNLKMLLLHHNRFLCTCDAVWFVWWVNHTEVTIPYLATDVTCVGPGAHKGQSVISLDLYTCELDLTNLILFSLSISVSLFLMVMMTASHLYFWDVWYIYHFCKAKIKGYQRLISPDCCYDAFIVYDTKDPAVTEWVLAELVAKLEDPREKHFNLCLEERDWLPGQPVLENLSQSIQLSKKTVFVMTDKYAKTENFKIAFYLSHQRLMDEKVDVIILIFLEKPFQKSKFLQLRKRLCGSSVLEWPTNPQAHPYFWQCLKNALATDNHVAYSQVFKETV
Method: (§1) The payload compounds of Formula (II′) were assayed to evaluate their agonistic activity on hTLR7 (human Toll-like receptor 7) and hTLR8 (human Toll-like receptor 8). Reporter cells lines (HEK-Blue hTLR7 and HEK-Blue hTLR8) were obtained from InvivoGen. Cells were cryopreserved in liquid nitrogen per supplier's instruction. Upon test, the cells were thawed, passaged and cultured in the growth media of DMEM supplemented with 10% fetal bovine serum, 1×NEAA, 1 mM Pyruvate, 2 mM glutamine, […] in the presence of the following antibiotics, as shown as Table 1. Test compounds (at desired concentrations diluted) were added to the 96-well assay plate, 0.5 μL per well. Reporter cells were harvested from the tissue culture flasks by incubation in PBS at 37° C. for two minutes after the media in the flask is removed and cells rinsed with PBS. Cells were counted and diluted in the HEK-Blue Detection media at 50000 cells/mL and incubated for 24 hours at 37° C., in a 5% CO2 humidified incubator. Then 20 μL of cell supernatant were added to the assay plate containing the 180 µL of QUANTI-Blue, incubated for 1 hour at 37° C. Optical density at 650 nm was analyzed using an Envision (Perkin Elmer) plate reader.

[2] = molecular target: T2, hTLR8 (human Toll-like receptor 8) (Homo sapiens, UniProt Q9NR97); test: hTLR8 cell assay (HEK-Blue hTLR8 reporter cells); assay type: cell-based; settings: 24 hours, OD 650 nm
T2 construct: host or cells: HEK-Blue hTLR8 (HEK293-derived reporter cells)
T2 sequence (Q9NR97 27-1041): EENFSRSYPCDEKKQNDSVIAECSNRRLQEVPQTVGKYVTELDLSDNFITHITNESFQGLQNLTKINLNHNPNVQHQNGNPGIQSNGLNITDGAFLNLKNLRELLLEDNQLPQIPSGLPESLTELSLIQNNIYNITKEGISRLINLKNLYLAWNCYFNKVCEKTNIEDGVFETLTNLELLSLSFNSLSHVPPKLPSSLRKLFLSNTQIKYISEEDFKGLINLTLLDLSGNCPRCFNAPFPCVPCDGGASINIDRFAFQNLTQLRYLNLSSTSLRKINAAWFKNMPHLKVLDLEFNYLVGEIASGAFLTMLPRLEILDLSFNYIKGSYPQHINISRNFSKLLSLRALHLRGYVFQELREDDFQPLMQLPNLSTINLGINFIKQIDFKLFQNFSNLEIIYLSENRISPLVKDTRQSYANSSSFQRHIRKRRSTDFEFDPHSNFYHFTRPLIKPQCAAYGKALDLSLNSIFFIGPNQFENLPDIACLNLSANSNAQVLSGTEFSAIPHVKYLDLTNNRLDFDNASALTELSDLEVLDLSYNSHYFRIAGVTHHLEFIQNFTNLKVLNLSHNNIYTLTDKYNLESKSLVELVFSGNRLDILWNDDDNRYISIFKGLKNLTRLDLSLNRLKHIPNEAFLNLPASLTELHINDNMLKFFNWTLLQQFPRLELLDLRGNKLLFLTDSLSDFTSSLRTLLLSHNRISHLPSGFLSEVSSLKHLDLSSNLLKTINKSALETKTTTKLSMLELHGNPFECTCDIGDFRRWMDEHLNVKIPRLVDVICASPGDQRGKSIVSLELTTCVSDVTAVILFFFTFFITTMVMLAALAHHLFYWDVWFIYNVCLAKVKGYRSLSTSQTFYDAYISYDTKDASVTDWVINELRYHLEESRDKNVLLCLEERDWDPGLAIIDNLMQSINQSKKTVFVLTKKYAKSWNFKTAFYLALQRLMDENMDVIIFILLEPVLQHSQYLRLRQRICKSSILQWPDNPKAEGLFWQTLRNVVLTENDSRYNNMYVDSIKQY
Method: as §1

Structure (SMILES)	EC50 [1] [µM]	EC50 [2] [µM]
CCOCc1nc2c(N)nc3cc(Cc4ccc(CCN(C)C)cc4)ccc3c2n1CC(C)(C)OCCN [Compound 24, 1-(2-(2-aminoethoxy)-2-methylpropyl)-7-(4-(2-(dimethylamino)ethyl)benzyl)-2-(ethoxymethyl)-1H-imidazo[4,5-c]quinolin-4-amine]	> 10	> 20
CCOCc1nc2c(N)nc3cc(Cc4ccc(CN)cc4)ccc3c2n1CC(C)(C)O [Compound 1, 1-(4-amino-7-(4-(aminomethyl)benzyl)-2-(ethoxymethyl)-1H-imidazo[4,5-c]quinolin-1-yl)-2-methylpropan-2-ol]	> 10	> 20
CCOCc1nc2c(N)nc3cc(Cc4ccc(NC(=O)NCCN)cc4)ccc3c2n1CC(C)(C)O [Compound 7, 1-(4-((4-amino-2-(ethoxymethyl)-1-(2-hydroxy-2-methylpropyl)-1H-imidazo[4,5-c]quinolin-7-yl)methyl)phenyl)-3-(2-aminoethyl)urea]	> 10	5 to 20
CCOCc1nc2c(N)nc3cc(Cc4ccc(CCN)cc4)ccc3c2n1CC(C)(C)OCCNC(=O)C(C)C [Compound 22, N-(2-((1-(4-amino-7-(4-(2-aminoethyl)benzyl)-2-(ethoxymethyl)-1H-imidazo[4,5-c]quinolin-1-yl)-2-methylpropan-2-yl)oxy)ethyl)isobutyramide]	1 to 10	> 20
CCCC(C)c1nc2c(N)nc3cc(Cc4ccccc4)ccc3c2n1CC(C)(C)OCCN (racemic) [Compound 28, 1-(2-(2-aminoethoxy)-2-methylpropyl)-7-benzyl-2-(pentan-2-yl)-1H-imidazo[4,5-c]quinolin-4-amine]	> 10	< 5
CCOCc1nc2c(N)nc3cc(Cc4ccc(CCN)cc4)ccc3c2n1Cc1ccc(CO)cc1 [Compound 45, (4-((4-amino-7-(4-(2-aminoethyl)benzyl)-2-(ethoxymethyl)-1H-imidazo[4,5-c]quinolin-1-yl)methyl)phenyl) methanol]	1 to 10	> 20
CCCC(C)c1nc2c(N)nc3cc(Cc4ccccc4)ccc3c2n1Cc1ccc(CN)cc1 (stereo not shown) [Compound 42, 1-(4-(aminomethyl)benzyl)-7-benzyl-2-(pentan-2-yl)-1H-imidazo[4,5-c]quinolin-4-amine]	1 to 10	< 5
CCCC(C)c1nc2c(N)nc3cc(Cc4ccc(CCN)cc4)ccc3c2n1CC(C)(C)OC (stereo not shown) [Compound 48, 7-(4-(2-aminoethyl)benzyl)-1-(2-methoxy-2-methylpropyl)-2-(pentan-2-yl)-1H-imidazo[4,5-c]quinolin-4-amine]	> 10	5 to 20
CCOCc1nc2c(N)nc3cc(Cc4ccccc4)ccc3c2n1CC1CC(CN)C1 (stereo not shown) [Compound 40, 1-((3-(aminomethyl)cyclobutyl)methyl)-7-benzyl-2-(ethoxymethyl)-1H-imidazo[4,5-c]quinolin-4-amine]	1 to 10	> 20

The remaining lines, values ahead:

EC50 [1] [µM]	EC50 [2] [µM]	Structure (SMILES)
< 1	> 20	CCOCc1nc2c(N)nc3cc(Cc4ccc(CCN)cc4)ccc3c2n1CC(C)(C)OCCNC(=O)C(C)(C)N [Compound 21]
1 to 10	5 to 20	CCOCc1nc2c(N)nc3cc(Cc4cccc(CCN)c4)ccc3c2n1CC(C)(C)O [Compound 5, 1-(4-amino-7-(3-(2-aminoethyl)benzyl)-2-(ethoxymethyl)-1H-imidazo[4,5-c]quinolin-1-yl)-2-methylpropan-2-ol]
1 to 10	5 to 20	CCCC(C)c1nc2c(N)nc3cc(Cc4cccc(CCCN)c4)ccc3c2n1CC(C)(C)O (stereo not shown) [Compound 14, 1-(4-amino-7-(3-(3-aminopropyl)benzyl)-2-(pentan-2-yl)-1H-imidazo[4,5-c]quinolin-1-yl)-2-methylpropan-2-ol]
1 to 10	< 5	CCCC(C)c1nc2c(N)nc3cc(Cc4cccc(CN)c4)ccc3c2n1CC(C)(C)O (stereo not shown) [Compound 12, 1-(4-amino-7-(3-(aminomethyl)benzyl)-2-(pentan-2-yl)-1H-imidazo[4,5-c]quinolin-1-yl)-2-methylpropan-2-ol]
1 to 10	5 to 20	CCOCc1nc2c(N)nc3cc(Cc4ccccc4)ccc3c2n1CC(C)(C)OCCCN [Compound 33]
1 to 10	> 20	CCOCc1nc2c(N)nc3cc(Cc4ccc(CCN)cc4)ccc3c2n1CC(C)(C)OCCN1CCCC1 [Compound 26, 7-(4-(2-aminoethyl)benzyl)-2-(ethoxymethyl)-1-(2-methyl-2-(2-(pyrrolidin-1-yl)ethoxy)propyl)-1H-imidazo[4,5-c]quinolin-4-amine]
1 to 10	> 20	CCOCc1nc2c(N)nc3cc(Cc4ccc(CC(N)=O)cc4)ccc3c2n1CC(C)(C)OCCN [Compound 27, 2-[4-({4-amino-1-[2-(2-aminoethoxy)-2-methylpropyl]-2-(ethoxymethyl)imidazo[4,5-c]quinolin-7-yl}methyl)phenyl]acetamide]
1 to 10	< 5	CCCC(C)c1nc2c(N)nc3cc(Cc4ccc(CCCN)cc4)ccc3c2n1CC(C)(C)O (stereo not shown) [Compound 11, 1-(4-amino-7-(4-(3-aminopropyl)benzyl)-2-(pentan-2-yl)-1H-imidazo[4,5-c]quinolin-1-yl)-2-methylpropan-2-ol]
1 to 10	< 5	CCCC(C)c1nc2c(N)nc3cc(Cc4ccc(CCN)cc4)ccc3c2n1CC(C)(C)O (stereo not shown) [Compound 8, 1-(4-amino-7-(4-(2-aminoethyl)benzyl)-2-(pentan-2-yl)-1H-imidazo[4,5-c]quinolin-1-yl)-2-methylpropan-2-ol]
< 1	< 5	CCCCc1nc2c(N)nc3cc(Cc4ccccc4)ccc3c2n1CC(C)(C)OCCN [Compound 31]
< 1	> 20	CCOCc1nc2c(N)nc3cc(Cc4ccc(CCN)cc4)ccc3c2n1CC(C)(C)OCCO [Compound 72, 2-((1-(4-amino-7-(4-(2-aminoethyl)benzyl)-2-(ethoxymethyl)-1H-imidazo[4,5-c]quinolin-1-yl)-2-methylpropan-2-yl)oxy)ethan-1-ol]

Reference: US20250325687A1, “CONJUGATE COMPRISING TOLL-LIKE RECEPTOR AGONIST” (MABSOFT THERAPEUTICS (SHANGHAI) CO., LTD., priority 2022, published 2025)
